Source: US20250084056A1, “SUBSTITUTED OXOISOINDOLINYL PIPERIDINE-2,6-DIONE COMPOUNDS” (BRISTOL-MYERS SQUIBB COMPANY, priority 2023, published 2025)

Assays:
Type in all cases: cell-based
Phospho-Rb (Ser807/811) = experiment: Phospho-Retinoblastoma (pRB) Cellular Assay; conditions: Homo sapiens, OVCAR-3, NIH OVCAR3 cells, 24 hours; for IC50: concentration giving 50% response; for Emax: maximum response, reference compound at 10 μM = 100%, read-out: pRB Ymax
Description: Phospho-Retinoblastoma (pRB) Cellular Assay
NIH OVCAR3 (HTB-161, American Type Culture Collection, Manassas VA) cells were grown up to passage 10 in culture media made up of RPMI (11835-030 Gibco, Grand Island NY), 20% HI FBS (16140-071, Gibco, Grand Island NY), and 0.01 mg/mL insulin from bovine pancreas (I6634-1G, Sigma Aldrich, St. Louis, MO).
The cells were seeded in a 384-well CulturPlate (6007688, Perkin Elmer, Waltham MA) at a density of 10,000 cells/well in 20 μL of the above culture media and incubated overnight at 37° C. and 5% CO2.
The next day, cells were treated using an Echo 650 (Beckman Coulter, Indianapolis IN) acoustic dispenser with 40 nL of compounds dissolved in DMSO at the appropriate serial dilutions (10 mM to […]). Cells were then incubated for 24 hours as above.
After 24 hours elapsed, media was removed from each well and shortly after 20 μL of the following mix was added: 12 μL deionized water, 4 μL lysis buffer, 4 μL of reconstituted antibody mix, and 1:100 phosphatase inhibitor. These components belong to the Phospho-Rb (Ser807/811) Cellular Kit (64RBS807PEY, Perkin Elmer, Waltham MA).
Plates were sealed and incubated away from light at room temperature for at least 4 hours before reading them on an EnVision plate reader (Perkin Elmer, Waltham MA) according to the kit manufacturer's protocol. The reference compound, N-(5-{[(5-tert-butyl-1,3-oxazol-2-yl)methyl]sulfanyl}-1,3-thiazol-2-yl)piperidine-4-carboxamide, at 10 μM was used to define 100% response. Assay results for each compound were reported as IC50, the concentration giving 50% response, and Ymax, the maximum response observed with the compound.

GSPT1 = GSPT1 (Homo sapiens, UniProt P15170+Q96SW2); experiment: GSPT1 Cellular Degradation Assay (DF15-GSPT1-ePL); set-up: expressed in transfected cells; conditions: DF15-GSPT1-ePL cells, 20 hours
Text: DF15-GSPT1-ePL was used for intracellular GSPT1 protein degradation detection in form of chemiluminescent signal, which was built on a human DF15 cell line (CVCL_Y429) with conditional co-expression of chimeric GSPT1 (target) and ePL/donor (enhanced ProLabel® by DiscoverX for enzyme fragment complementation with donor-acceptor pairing). The cells used the culture medium in two arrangements for assay and maintenance. During assay, it used Core-RPMI 1640 medium with 10% Fetal Bovine Serum (Heat Inactivated) and 1× Penicillin/Streptomycin; and during passage maintenance, used added ingredients: 0.1 mM NEAA, 1 mM sodium pyruvate, 25 mM Hepes, 0.1% Pluronic F-68, 1× Glutamin, 4 μg/mL Blasticidin (selection agent). Detection was performed on a 1536 well tissue culture plate (Corning #3727) with cells seeded in 3.5 μL core-RPMI 1640 at density of 0.25 million/mL after the pre-titrated test compounds in DMSO on ECHO plate were dispensed onto the assay plate by use of ECHO (liquid handing system via acoustic energy from Labcyte). Assay incubation lasted 20 hours in 37° C. incubator with 5% CO2; then followed by 30 minutes of plate-cooling at room temperature; then detection-reagent-mix was added in 3.5 μL/well with pre-defined proportion of enzyme acceptor, substrate, and lysis buffer. Plate signal reading for luminescence on an EnVision plate reader (PerkinElmer) was conducted after 60 minutes of former step at room temperature. Raw data was collected and processed with Dotmatics (data analyzer) for test compound's potency values. The reference compound, 3-[5-(3,6-dimethoxyisoquinolin-1-yl)-1-oxo-2,3-dihydro-1H-isoindol-2-yl]piperidine-2,6-dione, at […] was used to define 75% response. Assay results for each compound were reported as DC50, the concentration giving 50% response, and Dmax, the maximum response observed with the compound.

Cyclin E1 = Cyclin E1 (Homo sapiens, UniProt P24864+Q96SW2); experiment: Cyclin E1 Cellular Degradation Assay (MSD); set-up: endogenous in cells; host or cells: OVCAR3; conditions: for DC50 / Dmax: Cyclin E1 cellular degradation; for Dmax: maximum degradation; for Ratio of GSPT1 DC50/Cyclin E1 DC50: selectivity for degradation of Cyclin E1 over GSPT1
Description: Culturing cells: On Day 0, OVCAR3 cells were plated at 15,000 cells/well in 40 μL of culture medium (RPMI1640, 20% FBS, 0.01 insulin, 1% Anti/Anti) in a 384 well cell culture plate. Cell cultures were incubated for 24 hours at 37° C. and 5% CO2.
Coating MSD plates: On Day 1, rabbit anti-CCNE1 antibody (Abcam ab33911, 1 μg/mL in DPBS, […]) was dispensed to a Meso Scale Discovery plate (MSD L21XA). The MSD plate was spun briefly to ensure the solution coated the bottom of the well and incubated overnight at 4° C. On Day 2, the plate was washed 3 times with TBS +0.2% TWEEN, blocked for 1 hour with 3% MSD Blocker A (MSD R93AA-1, 30 μL/well), then washed again 3 times with TBS+0.2% TWEEN.
Treating and lysing cells: On Day 1, compounds of interest were dispensed into the cell cultures by acoustic dispensing technology. The cell cultures were then spun at 400 g for 4 minutes to disperse the compounds and incubated at 37° C. and 5% CO2 for 24 hours. After incubation, 40 μL of DPBS was added to the cell cultures to dilute the media. All liquid was gently discarded and immediately replaced with 30 μL of lysis buffer (MSD Tris Lysis buffer (MSD R60TX-2), Halt Protease inhibitor (ThermoFisher 78438), Phosphatase Inhibitor II (Sigma-Aldrich P5726), Phosphatase Inhibitor III (Sigma-Aldrich P0044), 0.02M PMSF (Sigma-Aldrich 7626), 0.1% SDS (VWR E719-100ML)). The plate was then sealed, shaken at 300 rpm at room temperature for 5 minutes, and freeze-thawed for optimum cell lysis.
Collecting data: After thawing, 25 μL of lysate was transferred to a coated MSD plate. The plate was then sealed and shaken at 300 rpm overnight in 4° C. On Day 3, the MSD plate was washed 3 times with TBS+0.2% TWEEN. Mouse anti-CCNE1 antibody (Abcam ab238081, 0.5 μg/mL in 1% MSD Blocker A, 10 μL/well) dispensed to the MSD plate, which was then sealed and shaken at room temperature for 3 hours. After the first antibody incubation, the plate was washed 3 times with TBS+0.2% TWEEN, then goat anti-mouse Sulfo-Tag antibody (MSD R32AC, 1 μg/mL in 1% MSD Blocker A, 10 μL/well) was dispensed to the MSD plate. The plate was sealed again and shaken at room temperature for 1 hour, then washed 3 times with TBS+0.2% TWEEN. After the final wash, 35 μL of 1× Read Buffer (MSD R92TC-1) was added to each well and the data was captured using the MSD plate reader. The reference compound, [2-(2,6-dioxopiperidin-3-yl)-4-methoxy-3-oxo-2,3-dihydro-1H-isoindol-5-yl]methyl N-[4-(3,4-difluorophenoxy)phenyl]carbamate, at […] was used to define […]. Assay results for each compound were reported as DC50, the concentration giving 50% response, and Dmax, the maximum response observed with the compound.

Sequence of Cyclin E1 (P24864 whole entry): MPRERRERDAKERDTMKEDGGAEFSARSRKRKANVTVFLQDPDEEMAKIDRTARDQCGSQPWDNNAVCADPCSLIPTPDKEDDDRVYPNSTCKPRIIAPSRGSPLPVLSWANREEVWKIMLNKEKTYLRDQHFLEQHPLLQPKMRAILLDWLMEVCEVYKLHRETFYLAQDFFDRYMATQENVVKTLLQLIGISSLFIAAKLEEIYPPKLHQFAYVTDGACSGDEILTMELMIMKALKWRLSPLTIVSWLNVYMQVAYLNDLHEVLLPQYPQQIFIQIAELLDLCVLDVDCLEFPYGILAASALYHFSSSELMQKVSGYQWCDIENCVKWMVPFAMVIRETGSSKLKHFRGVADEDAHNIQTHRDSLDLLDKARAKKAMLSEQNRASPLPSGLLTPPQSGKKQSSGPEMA
Sequence of Cyclin E1 (Q96SW2 whole entry): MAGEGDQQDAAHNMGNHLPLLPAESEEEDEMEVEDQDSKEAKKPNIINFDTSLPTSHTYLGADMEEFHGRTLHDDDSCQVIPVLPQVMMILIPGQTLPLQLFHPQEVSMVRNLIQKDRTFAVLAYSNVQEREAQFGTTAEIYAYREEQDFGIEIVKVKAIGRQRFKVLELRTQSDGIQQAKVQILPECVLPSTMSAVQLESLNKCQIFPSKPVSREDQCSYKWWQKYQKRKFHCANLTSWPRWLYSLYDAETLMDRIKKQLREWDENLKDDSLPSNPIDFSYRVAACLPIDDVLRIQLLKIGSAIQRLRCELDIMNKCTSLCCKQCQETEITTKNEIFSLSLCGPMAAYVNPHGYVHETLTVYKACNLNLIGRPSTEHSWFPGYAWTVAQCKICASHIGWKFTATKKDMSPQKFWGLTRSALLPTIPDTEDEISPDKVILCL
Sequence of Cyclin E1 (Q16531 whole entry partner): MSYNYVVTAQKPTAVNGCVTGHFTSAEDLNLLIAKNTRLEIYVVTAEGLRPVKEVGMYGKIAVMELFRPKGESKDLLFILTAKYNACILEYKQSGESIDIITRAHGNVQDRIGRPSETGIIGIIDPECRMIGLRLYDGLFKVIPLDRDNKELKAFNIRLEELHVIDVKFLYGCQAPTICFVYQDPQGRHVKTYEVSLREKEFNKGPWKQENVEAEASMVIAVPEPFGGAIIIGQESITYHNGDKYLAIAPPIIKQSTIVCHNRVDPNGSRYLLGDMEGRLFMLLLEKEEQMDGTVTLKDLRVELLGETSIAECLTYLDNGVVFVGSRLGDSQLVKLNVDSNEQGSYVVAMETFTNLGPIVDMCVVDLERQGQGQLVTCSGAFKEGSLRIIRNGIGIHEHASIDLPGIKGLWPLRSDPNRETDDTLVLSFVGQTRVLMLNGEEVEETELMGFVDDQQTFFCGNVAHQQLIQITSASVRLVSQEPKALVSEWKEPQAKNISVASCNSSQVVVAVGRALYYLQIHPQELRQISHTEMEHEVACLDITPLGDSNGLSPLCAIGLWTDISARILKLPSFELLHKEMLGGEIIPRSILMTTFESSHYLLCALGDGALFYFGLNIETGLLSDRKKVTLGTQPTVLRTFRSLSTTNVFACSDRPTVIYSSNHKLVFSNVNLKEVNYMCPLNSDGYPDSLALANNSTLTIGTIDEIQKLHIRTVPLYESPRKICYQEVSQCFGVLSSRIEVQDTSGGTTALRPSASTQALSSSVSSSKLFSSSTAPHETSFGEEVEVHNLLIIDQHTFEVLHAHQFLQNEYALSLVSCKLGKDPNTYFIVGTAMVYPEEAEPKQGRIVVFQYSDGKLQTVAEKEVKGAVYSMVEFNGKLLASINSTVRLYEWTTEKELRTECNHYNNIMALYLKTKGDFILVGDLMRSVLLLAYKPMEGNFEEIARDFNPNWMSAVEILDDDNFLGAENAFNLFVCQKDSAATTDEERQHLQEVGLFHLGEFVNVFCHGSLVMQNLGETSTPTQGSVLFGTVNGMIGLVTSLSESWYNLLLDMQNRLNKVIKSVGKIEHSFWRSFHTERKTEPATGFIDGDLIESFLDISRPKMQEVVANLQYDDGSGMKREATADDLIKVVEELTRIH
Sequence of GSPT1 (P15170 whole entry, the tested form may be a part): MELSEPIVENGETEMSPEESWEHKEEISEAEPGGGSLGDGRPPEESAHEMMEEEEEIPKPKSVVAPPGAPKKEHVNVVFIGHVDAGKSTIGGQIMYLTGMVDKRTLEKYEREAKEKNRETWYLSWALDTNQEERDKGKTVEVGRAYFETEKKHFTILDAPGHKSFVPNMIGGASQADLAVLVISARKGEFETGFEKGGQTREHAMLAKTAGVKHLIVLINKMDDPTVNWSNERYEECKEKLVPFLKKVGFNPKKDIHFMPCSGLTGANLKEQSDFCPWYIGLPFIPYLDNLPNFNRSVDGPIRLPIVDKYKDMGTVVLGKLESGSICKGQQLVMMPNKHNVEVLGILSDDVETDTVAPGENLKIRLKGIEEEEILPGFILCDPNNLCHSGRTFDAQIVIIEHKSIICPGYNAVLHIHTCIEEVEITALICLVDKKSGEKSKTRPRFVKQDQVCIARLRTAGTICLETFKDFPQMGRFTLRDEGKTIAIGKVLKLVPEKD
Sequence of GSPT1 (Q96SW2 whole entry, the tested form may be a part): as the sequence (Q96SW2 whole entry) above
Sequence of GSPT1 (Q16531 whole entry partner, the tested form may be a part): as the sequence (Q16531 whole entry partner) above

| IC50 (Phospho-Rb (Ser807/811)) | DC50 (GSPT1) | Dmax (GSPT1) | DC50 (Cyclin E1) | Dmax (Cyclin E1) | Ratio of GSPT1 DC50/Cyclin E1 DC50 (Cyclin E1) | Compound | Emax (Phospho-Rb (Ser807/811)) |
| --- | --- | --- | --- | --- | --- | --- | --- |
| 50 nM | > 14000 nM | 7% | 37 nM | 108% | >380 | COc1cc(Oc2ccc(F)cc2Cl)ccc1NC(=O)OCc1ccc2c(c1OC)C(=O)N(C1CCC(=O)NC1=O)C2 (stereo not shown) [Example 104, [2-(2,6-dioxopiperidin-3-yl)-4-methoxy-3-oxo-2,3-dihydro-1H-isoindol-5-yl]methyl N-[4-(2-chloro-4-fluorophenoxy)-2-methoxyphenyl]carbamate] | 118% |
| 86 nM | > 14000 nM | 37% | 176 nM | 109% | >80 | CCOc1c(COC(=O)Nc2ccc(Oc3ccc(F)c(F)c3)cc2)ccc2c1C(=O)N(C1CCC(=O)NC1=O)C2 (stereo not shown) [Example 53, [2-(2,6-dioxopiperidin-3-yl)-4-ethoxy-3-oxo-2,3-dihydro-1H-isoindol-5-yl]methyl N-[4-(3,4-difluorophenoxy)phenyl]carbamate] | 99% |
| 149 nM | > 14000 nM | 6% | 62 nM | 94% | >226 | COc1c(COC(=O)Nc2ccc(Cc3cccc(F)c3)cc2)ccc2c1C(=O)N(C1CCC(=O)NC1=O)C2 (stereo not shown) [Example 6, [2-(2,6-dioxopiperidin-3-yl)-4-methoxy-3-oxo-2,3-dihydro-1H-isoindol-5-yl]methyl N-{4-[(3-fluorophenyl)methyl]phenyl}carbamate] | 117% |
| 121 nM | > 14000 nM | 35% | 59 nM | 108% | >236 | COc1c(COC(=O)Nc2ccc(Oc3ccc(F)cc3Cl)cc2)ccc2c1C(=O)N(C1CCC(=O)NC1=O)C2 (stereo not shown) [Example 102, [2-(2,6-dioxopiperidin-3-yl)-4-methoxy-3-oxo-2,3-dihydro-1H-isoindol-5-yl]methyl N-[4-(2-chloro-4-fluorophenoxy)phenyl]carbamate] | 120% |
| 40 nM | > 14000 nM | 9% | 53 nM | 107% | >263 | CC(C)Oc1c(COC(=O)Nc2ccc(Oc3ccccc3F)cc2)ccc2c1C(=O)N(C1CCC(=O)NC1=O)C2 (stereo not shown) [Example 121, [2-(2,6-dioxopiperidin-3-yl)-3-oxo-4-(propan-2-yloxy)-2,3-dihydro-1H-isoindol-5-yl]methyl N-[4-(2-fluorophenoxy)phenyl]carbamate] | 125% |
| 42 nM | > 14000 nM | 16% | 25 nM | 106% | >569 | O=C1CCC(N2Cc3ccc(COC(=O)Nc4ccc(Oc5ccc(F)cc5)cc4)c(OC4CCOCC4)c3C2=O)C(=O)N1 (stereo not shown) [Example 133, [2-(2,6-dioxopiperidin-3-yl)-4-(oxan-4-yloxy)-3-oxo-2,3-dihydro-1H-isoindol-5-yl]methyl N-[4-(4-fluorophenoxy)phenyl]carbamate] | 145% |
| 175 nM | – | – | 74 nM | 104% | – | O=C1CCC(N2Cc3ccc(COC(=O)Nc4ccc(Oc5cccc(Cl)c5)cc4)c(O[C@@H]4CCOC4)c3C2=O)C(=O)N1 (stereo partly drawn) [Example 158, [2-(2,6-dioxopiperidin-3-yl)-3-oxo-4-[(3R)-oxolan-3-yloxy]-2,3-dihydro-1H-isoindol-5-yl]methyl N-[4-(3-chlorophenoxy)phenyl]carbamate] | 109% |
| 39 nM | – | – | 101 nM | 103% | – | O=C1CCC(N2Cc3ccc(COC(=O)Nc4ccc(Oc5cccc(F)c5F)cc4)c(O[C@@H]4CCOC4)c3C2=O)C(=O)N1 (stereo partly drawn) [Example 156, [2-(2,6-dioxopiperidin-3-yl)-3-oxo-4-[(3R)-oxolan-3-yloxy]-2,3-dihydro-1H-isoindol-5-yl]methyl N-[4-(2,3-difluorophenoxy)phenyl]carbamate] | 116% |
| 188 nM | – | – | 176 nM | 100% | – | O=C1CCC(N2Cc3ccc(COC(=O)Nc4ccc(Oc5ccc(F)cc5Cl)cc4)c(O[C@@H]4CCOC4)c3C2=O)C(=O)N1 (stereo partly drawn) [Example 155, [2-(2,6-dioxopiperidin-3-yl)-3-oxo-4-[(3R)-oxolan-3-yloxy]-2,3-dihydro-1H-isoindol-5-yl]methyl N-[4-(2-chloro-4-fluorophenoxy)phenyl]carbamate] | 116% |
| 65 nM | – | – | 116 nM | 99% | – | O=C1CCC(N2Cc3ccc(COC(=O)Nc4ccc(Oc5ccc(F)cc5F)cc4)c(O[C@@H]4CCOC4)c3C2=O)C(=O)N1 (stereo partly drawn) [Example 157, [2-(2,6-dioxopiperidin-3-yl)-3-oxo-4-[(3R)-oxolan-3-yloxy]-2,3-dihydro-1H-isoindol-5-yl]methyl N-[4-(2,4-difluorophenoxy)phenyl]carbamate] | 119% |
